Among the data in PubChem BioAssay (NCI) are TGI values, retold here.

Common to all, as to test: inhibition of tumour cell growth, NCI panel, 48 h
In assay [1] the test system is UO-31 renal.
Assay [2] has as its system SNB-75 CNS.
Assay [3] deals with NCI-H226 lung.
For assay [4], the system named is MALME-3M melanoma.
For assay [5], the system named is OVCAR-5 ovarian.
Assay [6] relates to DU-145 prostate.
Assay [7] deals with A549 NSCLC.
Assay [8] concerns SK-MEL-5 melanoma.
For assay [9], the system named is UACC-257 melanoma.
The test system of assay [10] is HCT-116 colon.

Molecules are shown by their SMILES.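 Briefly, cells in 96-well plates were exposed to five compound concentrations for 48 h, and endpoints were estimated by linear interpolation. TGI is the concentration that stops growth completely.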

With `Brc1ccc(/C(N=N/C(=N\Sc2ccccc2)c2ccc(Br)cc2)=N/Sc2ccccc2)cc1`, the TGI in assay [1], in assay [2], in assay [3], in assay [4], in [5] and in assay [6] was over 100 µM in each case. Also, the TGI in assay [7], in assay [8], in [9] and in assay [10] was over 100 µM throughout.

Consider `CC(=O)N=S(NC(=O)c1ccc(C)cc1)C(Cl)(Cl)Cl` (stereo not drawn), for which the TGI in [1] is 56 µM; in assay [2], over 100 µM; in assay [3], over 100 µM; in assay [4] it was 96 µM; in assay [5], over 100 µM; in [6], over 100 µM. Further, the TGI in assay [7] is over 100 µM; in assay [8] it was 77.9 µM; in assay [9] it was over 100 µM; in [10] it was over 100 µM.

As to `Cn1c2ccccc2c2c3c(=O)[nH][nH]c(=O)c3c3c4ccccc4n(C)c3c21`, the TGI in assay [1], in assay [2], in [3], in assay [4], in [5] and in assay [6] was over 100 µM throughout. In addition, the TGI in assay [7], in assay [8], in assay [9] and in [10] was over 100 µM throughout.

For the compound `COc1ccc2c(c1)-c1nc(=S)n(CCN(C)C)c3ccc([N+](=O)[O-])c(c13)N2`, the TGI in assay [1] came out at 13.1 µM; in [2] it was 2.7 µM; in assay [3], 24.1 µM; in assay [4], 2.49 µM; in assay [5], 8.04 µM; in assay [6] it was 2.93 µM. In addition, the TGI in assay [7] came out at 2.28 µM; in assay [8], 7.61 µM; in assay [9], 5.92 µM; in [10] it was 1.56 µM.

Take `Nc1cc2nc(-c3ccccc3)cn2cn1`: the TGI in assay [1] was over 100 µM; in [2] it was over 100 µM; in assay [3], over 100 µM; in [4] it was 70 µM; in assay [5], over 100 µM; in assay [6], over 100 µM. Moreover, the TGI in assay [7], in assay [8] and in [10] was over 100 µM each time.

In the case of `CC(C)(C)[Si](C)(C)OC1CCOC1(O)c1ccccn1` (stereo not drawn), the TGI in assay [1], in assay [2], in [3], in [4], in [5] and in assay [6] was over 100 µM each time. In addition, the TGI in assay [7], in [8], in assay [9] and in [10] was over 100 µM throughout.

Turning to `CN(C)CN1C(=O)/C(=N\n2c(-c3ccncc3)n[nH]c2=S)c2ccccc21`, the TGI in assay [1] was 57 µM; in [2], over 100 µM; in assay [3] it was over 100 µM; in assay [4] it was over 100 µM; in assay [5], over 100 µM; in assay [6], 81.6 µM. Also, the TGI in [7] is over 100 µM; in [8] it was over 100 µM; in assay [9], 32.9 µM; in assay [10] it was over 100 µM.

For the compound `O/N=C/[C@H]1COC2(CCCCC2)O1`, the TGI in [1], in assay [2], in assay [3], in assay [4], in [5] and in [6] was over 100 µM throughout. In addition, the TGI in assay [7], in assay [8], in assay [9] and in assay [10] was over 100 µM in each case.

For `O=C1CCC(CCc2nc3ccccc3[nH]2)(c2ccccc2)C(=O)N1` (stereo not drawn), the TGI was 52.1 µM in [1]; over 100 µM in assay [2]; over 100 µM in [3]; over 100 µM in [4]; over 100 µM in assay [5]; over 100 µM in [6]. Further, the TGI in [7], in assay [8], in assay [9] and in assay [10] was over 100 µM each time.

For `Cc1ccc(S(=O)(=O)N2CCc3cc(O)c([N+](=O)[O-])cc32)cc1`, the TGI in assay [1], in assay [2], in assay [3], in [4], in assay [6] and in assay [7] was over 100 µM throughout. For the same compound, the TGI in [8], in assay [9] and in assay [10] was over 100 µM throughout.

For `CC(C)(C)C#CI1OC(=O)c2ccccc21`, the TGI in assay [1] came to 14.6 µM; in assay [2], 16 µM; in [3], 15.2 µM; in assay [4], 9.24 µM; in [5] it was 21.9 µM; in assay [6] it was 17.8 µM. In addition, the TGI came out at 31.9 µM in [7], 15.5 µM in assay [8], 25.7 µM in [9] and 6.82 µM in assay [10].

Turning to `O=c1cccc2n1CC1CNCC2C1` (stereo not drawn), the TGI in assay [1], in assay [2], in [3], in assay [4], in assay [5] and in [6] was over 100 µM each time. Besides, the TGI in assay [7], in [8], in [9] and in assay [10] was over 100 µM each time.

Regarding `Brc1ccc2[nH]cc(-c3csc(-c4c[nH]c5ccc(Br)cc45)n3)c2c1`, the TGI worked out at 7.27 µM in assay [1]; 7.27 µM in assay [2]; 5.1 µM in [3]; 3.99 µM in assay [4]; 5.6 µM in assay [5]; 6.89 µM in [6]. For the same compound, the TGI was found to be 7 µM in assay [7], 3.14 µM in [8], 9.05 µM in assay [9] and 3.26 µM in [10].

With `COC(=O)Cc1c2n(c3ccccc13)C(=O)N1c3ccccc3C(CC(=O)OC)C21` (stereo not drawn), the TGI in assay [1] is over 100 µM; in assay [2], 28.5 µM; in [3], over 100 µM; in assay [4], over 100 µM; in assay [5], over 100 µM; in assay [6] it was over 100 µM. Moreover, the TGI in [7], in assay [8], in assay [9] and in assay [10] was over 100 µM each time.

For the compound `C[C@@](Br)(C(=O)O)[C@H](Br)C(=O)O`, the TGI in assay [1], in assay [2], in [3], in [4], in assay [5] and in assay [6] was over 100 µM each time. The TGI in assay [7], in [8], in assay [9] and in assay [10] was over 100 µM in each case.

For `OC(CCN1CCN(CCOC(c2ccc(F)cc2)c2ccc(F)cc2)CC1)c1ccc(Br)cc1` (stereo not drawn), the TGI in [1] was 4.67 µM; in assay [2], 23.7 µM; in assay [3], 21.9 µM; in assay [4], 4.39 µM; in assay [5] it was 29.4 µM; in [6] it was 17.4 µM. For the same compound, the TGI in [7] is 24.1 µM; in assay [8] it was 3.3 µM; in assay [9] it was 4.61 µM; in [10], 7.84 µM.

For the compound `Cc1cccc2c(N)c3cccc(C(=O)NCC[N+](C)(C)[O-])c3nc12`, the TGI in [1] was over 100 µM; in assay [2], 9.47 µM; in [3] it was 27.8 µM; in assay [4], 52.5 µM; in assay [5] it was 27.6 µM; in assay [6], over 100 µM. Moreover, the TGI in assay [7] is over 100 µM; in [8], over 100 µM; in assay [9] it was 60.3 µM; in assay [10], over 100 µM.

On to `O=c1[nH]nc(-c2ccc([N+](=O)[O-])cc2)[nH]1`, for which the TGI in assay [1], in assay [2], in [3], in assay [4], in [5] and in assay [6] was over 100 µM throughout. In addition, the TGI in [7], in assay [9] and in [10] was over 100 µM throughout.

Turning to `CN(C)CCN1C(=O)N(CCN(C)C)c2c3cc(O)ccc3nc3c([N+](=O)[O-])ccc1c23`, the TGI was determined as 33.9 µM in assay [1]; 44.9 µM in [2]; 30.5 µM in assay [3]; 29.6 µM in [4]; 27 µM in [6]; 35.5 µM in assay [7]. Further, the TGI was 26.8 µM in [8], 29.2 µM in assay [9] and 17.1 µM in [10].

As to `CCOP(=O)(COCCn1nc(Br)c(=O)[nH]c1=O)OCC`, the TGI in [1], in assay [2], in assay [3], in [4], in assay [5] and in assay [6] was over 100 µM throughout. For the same compound, the TGI in [7], in assay [8] and in assay [9] was over 100 µM each time.

As to `CN(C)C(=O)/N=C1\SC(=Nc2ccccc2)C(=Nc2ccccc2)N1c1ccc([N+](=O)[O-])cc1`, the TGI in assay [1], in [2], in [3], in assay [4], in assay [5] and in assay [6] was over 100 µM in each case. Moreover, the TGI in [8] and in assay [10] was over 100 µM in each case.
